Here are results for one compound from patent publication US11433092B2, “Compositions and methods of use for wound healing” (SYNEDGEN, INC., priority 2013, dated 2022).

This test deals with Methicillin Resistant Staphylococcus aureus (NRS 384/USA 300). As to the kind of experiment: Deep partial thickness biofilm prevention porcine wound model, MRSA. In kind it is in vivo. As to the method:
The animals were prepared as described (above). Ninety-six (96) rectangular wounds measuring 10 mm×7 mm×0.5 mm deep were made in the paravertebral and thoracic area with a specialized electrokeratome fitted with a 7 mm blade. The wounds were separated from one another by 15 mm of unwounded skin and individually dressed. The wounds were then inoculated and treated. A fresh culture of Acinetobacter baumannii ATCC 19606 or Methicillin Resistant Staphylococcus aureus (NRS 384/USA 300) was used in these studies. The challenge inoculum suspension was prepared by scraping the overnight growth from a culture plate into 5 ml of normal saline. […] Serial dilutions were made until a concentration of 10^6 CFU/ml was achieved. […] In addition, serial dilutions of the suspension were plated onto selective media and the plates were incubated aerobically overnight (16-24 hours) at 37° C., in order to quantify the exact concentration of viable organisms used for this experiment. […]
Twelve (12) wounds were recovered from each treatment group on each assessment day (days 3 and 4). […] Serial dilutions were made from all culture samples, and the extent of microbiological contamination was assessed using the Spiral Plater System (Spiral Biotech, Norwood, Mass.). […] All plates were incubated aerobically overnight 24 hours at 37° C., after which time the number of viable colonies were counted.

On to `C/C(=C\C(=O)OCCCCCCCCC(=O)O)C[C@@H]1OC[C@H](C[C@@H]2O[C@H]2[C@@H](C)[C@H](C)O)[C@@H](O)[C@H]1O` [mupirocin], for which the “biofilm infection at day 3 compared to day 4 (MRSA)” value (across treatment days) is given as “significant reduction in biofilm infection”. Besides, the “biofilm infection (MRSA)” value (days 3 and 4) is given as “significantly reduced biofilm infection”.
